Earlier results in the PKSmart pharmacokinetics tables (Seal et al. 2025).

Experiments:
[1] = not given per row; by the article one of three: Lombardo et al. 2013, J Clin Pharmacol 53:178, doi 10.1177/0091270012440282; 'New Drugs at FDA', novel drug approvals for 2021 and 2022 (the article's reference 43); Yap, Li, Chen 2006, J Mol Graph Model 24:383, doi 10.1016; details: human
[2] = Lombardo et al. 2013, J Clin Pharmacol 53:178, doi 10.1177/0091270012440282; details: for Vd / clearance: in vivo, iv; for fraction unbound: plasma
[3] = Lombardo, Berellini, Obach 2018, Drug Metab Dispos 46:1466, doi 10.1124/dmd.118.082966; details: human; for MRT / Vd / clearance / half-life: in vivo, iv; for fraction unbound: plasma

O=C(O)CCCCCCNC1c2ccccc2CCc2ccccc21
clearance ([1]; in vivo): 29.6 mL/min/kg

CCCCN(CCCC)C[C@H](O)c1cc(Cl)cc2c1-c1ccc(Cl)cc1/C2=C/c1ccc(Cl)cc1
clearance ([1]; in vivo): 3.57 mL/min/kg

CNCC[C@H](Oc1ccc(C(F)(F)F)cc1)c1ccccc1
clearance ([1]; in vivo): 9.6 mL/min/kg

[2H]C([2H])([2H])NC(=O)c1nnc(NC(=O)C2CC2)cc1Nc1cccc(-c2ncn(C)n2)c1OC
Vd ([1]; in vivo): 2.33 L/kg
clearance ([1]; in vivo): 0.68 mL/min/kg
half-life ([1]; in vivo): 600 min
fraction unbound ([1]; plasma): 0.14

CNS(=O)(=O)CCC1CCC2[N]CC(C3CCN(C)CC3)C2C1 (configuration not stated)
clearance ([1]; in vivo): 6.35 mL/min/kg

CN1CCC[C@@H]1c1cccnc1
clearance ([1]; in vivo): 18.5 mL/min/kg

CC1(C)S[C@H]2C(NC(=O)C(NC(=O)N3CCNC3=O)c3ccccc3)C(=O)N2C1C(=O)O (some centres not stated)
clearance ([1]; in vivo): 2.52 mL/min/kg

CCNC[C@H](O)c1ccc(O)cc1
clearance ([1]; in vivo): 13.6 mL/min/kg

OCCOCCN1CCN(C2=Nc3ccccc3Sc3ccccc32)CC1
clearance ([1]; in vivo): 19.1 mL/min/kg

CCOCn1c(Cc2ccccc2)c(C(C)C)c(=O)[nH]c1=O
clearance ([1]; in vivo): 28.6 mL/min/kg

COC(=O)C1C=C2CC(=O)CC[C@]2(C)[C@@]23O[C@H]2C[C@@]2(C)[C@H](CC[C@]24CCC(=O)O4)[C@@H]13 (some centres not stated)
clearance ([1]; in vivo): 2.38 mL/min/kg

NC[C@H](CC(=O)O)c1ccc(Cl)cc1
clearance ([1]; in vivo): 2.72 mL/min/kg

COC(=O)C1[C@H](OC(=O)c2ccccc2)CC2CC[C@@H]1N2C (some centres not stated)
clearance ([1]; in vivo): 32 mL/min/kg

CC(=O)N1CCN(c2ccc(OC[C@@H]3CO[C@](Cn4ccnc4)(c4ccc(Cl)cc4Cl)O3)cc2)CC1
clearance ([1]; in vivo): 8.4 mL/min/kg

CN(C/C=C/C#CC(C)(C)C)Cc1cccc2ccccc12
clearance ([1]; in vivo): 17.9 mL/min/kg

OC[C@H]1CC[C@@H](n2cnc3c(O)ncnc32)O1
clearance ([1]; in vivo): 15.2 mL/min/kg

CCCCCCCN(CC)CCC[C@@H](O)c1ccc(NS(C)(=O)=O)cc1
clearance ([1]; in vivo): 29 mL/min/kg

COCC(=O)Nc1c(I)c(C(=O)NC[C@H](O)CO)c(I)c(C(=O)N(C)C[C@H](O)CO)c1I
clearance ([1]; in vivo): 1.53 mL/min/kg

O=C(O)CN1C(=O)C(NC(CCc2ccccc2)C(=O)O)CCc2ccccc21 (configuration not stated)
clearance ([1]; in vivo): 0.35 mL/min/kg

CC(=O)Oc1cc(C(F)(F)F)ccc1C(=O)O
clearance ([1]; in vivo): 10.7 mL/min/kg

Cc1ncc([N+](=O)[O-])n1C[C@@H](C)O
clearance ([1]; in vivo): 0.4 mL/min/kg

C[C@]12CC[C@@H]3C4=C(CC[C@H]3[C@@H]1CC[C@@H]2O)CC(=O)CC4
clearance ([1]; in vivo): 26.7 mL/min/kg

CCC[C@H](C)[C@@]1(CC)C(=O)N=C(S)NC1=O
clearance ([1]; in vivo): 3.02 mL/min/kg

COc1cc2c(cc1OC)C(=O)C(CC1CCN(Cc3ccccc3)CC1)C2 (configuration not stated)
clearance ([1]; in vivo): 2.53 mL/min/kg

CC(=O)CC(c1ccccc1)c1c(O)c2ccccc2oc1=O (configuration not stated)
Vd ([2]; dog): 0.28 L/kg
clearance ([2]; dog): 0.3 mL/min/kg
Vd ([2]; rat): 0.24 L/kg
clearance ([2]; rat): 0.17 mL/min/kg
fraction unbound ([2]; rat): 0.405
MRT [3]: 39 h
Vd [3]: 0.13 L/kg

COCc1c(-c2ccc(F)cc2)c(=CC[C@@H](O)C[C@@H](O)CC(=O)O)c(C(C)C)nc1=C(C)C
Vd ([2]; rat): 3 L/kg
clearance ([2]; rat): 27 mL/min/kg
MRT [3]: 1.8 h
Vd [3]: 0.33 L/kg
clearance [3]: 2.9 mL/min/kg
half-life [3]: 108 min

CCC(CC)O[C@@H]1C=C(C(=O)O)C[C@H](N)[C@H]1NC(C)=O
Vd ([2]; dog): 0.56 L/kg
clearance ([2]; dog): 5.3 mL/min/kg
fraction unbound ([2]; dog): 0.304
Vd ([2]; rat): 1.3 L/kg
clearance ([2]; rat): 25 mL/min/kg
MRT [3]: 1.3 h
Vd [3]: 0.37 L/kg
clearance [3]: 4.8 mL/min/kg
half-life [3]: 108 min

Cc1nc2sccn2c(=O)c1CCN1CCC(=C(c2ccc(F)cc2)c2ccc(F)cc2)CC1
Vd ([2]; rat): 8 L/kg
clearance ([2]; rat): 26.7 mL/min/kg
fraction unbound ([2]; rat): 0.015
MRT [3]: 46.1 h
Vd [3]: 1.41 L/kg
clearance [3]: 0.51 mL/min/kg
half-life [3]: 2400 min
fraction unbound [3]: 0.008

O=C(O)CC(NC(=O)CP(=O)(O)O)C(=O)O (configuration not stated)
Vd ([2]; dog): 0.29 L/kg
clearance ([2]; dog): 4.1 mL/min/kg
Vd ([2]; monkey): 0.2 L/kg
clearance ([2]; monkey): 2.3 mL/min/kg
Vd ([2]; rat): 1.1 L/kg
clearance ([2]; rat): 17.4 mL/min/kg
MRT [3]: 4.51 h
Vd [3]: 0.33 L/kg
clearance [3]: 1.22 mL/min/kg
half-life [3]: 287 min

O=C1CN=C(c2ccccc2Cl)c2cc([N+](=O)[O-])ccc2N1
Vd ([2]; dog): 2.49 L/kg
clearance ([2]; dog): 24 mL/min/kg
fraction unbound ([2]; dog): 0.18
Vd ([2]; monkey): 6.8 L/kg
clearance ([2]; monkey): 14.3 mL/min/kg
fraction unbound ([2]; monkey): 0.121
Vd ([2]; rat): 3.1 L/kg
clearance ([2]; rat): 70.5 mL/min/kg
MRT [3]: 55 h
Vd [3]: 2.9 L/kg
clearance [3]: 0.88 mL/min/kg
half-life [3]: 2280 min

NC(Cc1ccc(O)c(O)c1)C(=O)O (configuration not stated)
Vd ([2]; dog): 0.76 L/kg
clearance ([2]; dog): 23.7 mL/min/kg
clearance ([2]; rat): 109 mL/min/kg
MRT [3]: 1.2 h
Vd [3]: 1.7 L/kg
clearance [3]: 23 mL/min/kg
half-life [3]: 78 min
fraction unbound [3]: 0.76
